Read-outs that look alike come from different tables or passages of the source.
Key:
Glucocorticoid Receptor = target: T1, Glucocorticoid Receptor (Homo sapiens, UniProt P04150); assay: Trans-Activation Modulation of Glucocorticoid Receptor (GRAMMER), MMTV-LUC reporter gene in A549 cells; type: cell-based; details: Table 1; for Emax: A549, A549 cells, read-out: Transactivation A549 Cells GRAMMER Emax; for Emax / Transactivation A549 Cells GRAMMER Emax: Emax relative to 300 nM dexamethasone; for EC50: inflection point, read-out: Transactivation A549 Cells GRAMMER IP; for EC50 / Transactivation A549 Cells GRAMMER Emax: A549 cells
T1 construct: These cells express large amount of the GR and are very responsive to GC treatment; endogenous in cells; host or cells: A549 cells transiently transfected with the MMTV-LUC reporter
T1 sequence (P04150 1-777): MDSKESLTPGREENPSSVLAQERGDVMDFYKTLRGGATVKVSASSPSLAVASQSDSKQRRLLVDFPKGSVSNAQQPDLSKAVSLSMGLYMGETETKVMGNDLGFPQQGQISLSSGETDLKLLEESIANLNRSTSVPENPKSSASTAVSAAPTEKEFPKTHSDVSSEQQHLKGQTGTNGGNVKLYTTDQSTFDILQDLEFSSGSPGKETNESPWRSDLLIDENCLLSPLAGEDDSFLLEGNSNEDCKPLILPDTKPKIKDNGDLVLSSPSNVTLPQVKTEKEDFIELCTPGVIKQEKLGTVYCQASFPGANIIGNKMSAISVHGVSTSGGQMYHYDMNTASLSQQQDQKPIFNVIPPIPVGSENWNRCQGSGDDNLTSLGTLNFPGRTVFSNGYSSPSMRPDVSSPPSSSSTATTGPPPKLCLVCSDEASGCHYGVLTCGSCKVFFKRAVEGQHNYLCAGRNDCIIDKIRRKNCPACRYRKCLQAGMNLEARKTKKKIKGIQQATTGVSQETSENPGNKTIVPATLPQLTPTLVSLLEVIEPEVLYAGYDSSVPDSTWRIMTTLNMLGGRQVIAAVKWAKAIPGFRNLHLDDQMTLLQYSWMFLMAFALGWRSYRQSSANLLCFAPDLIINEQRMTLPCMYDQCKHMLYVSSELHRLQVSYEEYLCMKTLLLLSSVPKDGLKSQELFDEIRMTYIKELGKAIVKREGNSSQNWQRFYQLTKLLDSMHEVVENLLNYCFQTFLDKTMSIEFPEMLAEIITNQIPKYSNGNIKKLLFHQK
In short: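 Luciferase from a transiently transfected MMTV-LUC reporter was measured after 24 h compound exposure (≤1% DMSO) in A549 or MDA-MB-453 cells. For antagonism, the decrease of 10 nM dexamethasone-induced signal was calculated. For agonism, Emax was referenced to 300 nM dexamethasone.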

human GR = target: T2, human GR (Homo sapiens, UniProt P04150); assay: Transrepression Assay (GITAR), TNFα-β-lactamase reporter gene in U937 cells; type: cell-based; details: for GITAR Greater than by GRAMMER % SEP: GITAR Emax minus GRAMMER Emax; for EC50: inflection point, read-out: Transrepression U937 Cells GITAR IP
T2 construct: U937 cells contain an endogenous glucocorticoid receptor (GR); endogenous in cells; host or cells: U937 cells stably transfected with the TNF-alpha promoter/beta-lactamase reporter
T2 sequence (P04150 1-777): T1 sequence (P04150 1-777)
In short: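 Repression of PMA (5 ng/ml final)/LPS (100 ng/ml final)-induced TNF-α promoter activity, read as β-lactamase cleavage of CCF2-AM, in stably transfected U937 cells expressing native GR. Compound added 30-45 min before stimulation, overnight (~18 hr) 37° C; normalized to 100 nM dexamethasone (100%).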

[1] = target: T3, glucocorticoid receptor (GR) (Homo sapiens, UniProt P04150); assay: Ligand binding assay (GR BIND), 3H-dexamethasone displacement in MDA-MB-453 cell lysate; details: Table 1
T3 sequence (P04150 1-777): T1 sequence (P04150 1-777)

[2] = U-937, U937 cells, activity repressed by 100 nM dexamethasone = 100%, Table 1, read-out: Transrepression U937 Cells GITAR Emax
[3] = U-937, text statement, 100 nM dexamethasone = 100%, read-out: maximal activity in the transrepression assay (GITAR)

| Compound | Emax (Glucocorticoid Receptor) [%] | EC50 (Glucocorticoid Receptor) [nM] | GITAR Greater than by GRAMMER % SEP (human GR; Table 1) [%] | Emax (human GR; [2]) [%] | Emax (human GR; [3]) [%] | EC50 (human GR; U937 cells, Table 1) [nM] | Ki ([1]; GR BIND Ki) [nM] | Transactivation A549 Cells GRAMMER Emax (Glucocorticoid Receptor) [%] | Transrepression U937 Cells GITAR Emax (human GR; U937 cells, activity repressed by 100 nM dexamethasone = 100%, Table 1) [%] | Ki ([1]; read-out: GR BIND Ki) [nM] |
| --- | --- | --- | --- | --- | --- | --- | --- | --- | --- | --- |
| CCCCN(CC)C(=O)[C@H]1CCC2=Cc3c(cnn3-c3ccc(F)cc3)C[C@@]21C [Compound 12, (4αR,5S)-N-butyl-N-ethyl-1-(4-fluorophenyl)-4α-methyl-1,4 ,4α,5,6,7-hexahydrocyclopenta[f]indazole-5-carboxamide] | 29.7 | 376 | 26.6 | 56.3 | > 5 | 662 | 1.4 |  |  |  |
| CCCN(C(=O)[C@H]1CCC2=Cc3c(cnn3-c3ccc(F)cc3)C[C@@]21C)C(C)CC (stereo partly drawn) [Compound 16, (4αR,5S)-N-(sec-butyl)-1-(4-fluorophenyl)-4α-methyl-N-propyl-1,4,4α,5,6,7-hexahydrocyclopenta[f]indazole-5-carboxamide] | 33.8 | 184 | 28.1 | 61.8 | > 5 | 376 | 2.8 |  |  |  |
| C[C@H](O)CN(CCc1ccccc1F)C(=O)[C@H]1CCC2=Cc3c(cnn3-c3ccc(F)cc3)C[C@@]21C [Compound 69, (4αR,5S)-1-(4-fluorophenyl)-N-[2-(2-fluorophenyl)ethyl]-N-[(2S)-2-hydroxypropyl]-4α-methyl-1,4,4α,5,6,7-hexahydrocyclopenta[f]indazole-5-carboxamide] | 21.9 | 680 | 42.6 | 64.4 | > 5 | 714 | 5.4 |  |  |  |
| CN(Cc1cccc(C(F)(F)F)c1)C(=O)[C@H]1CCC2=Cc3c(cnn3-c3ccc(F)cc3)C[C@@]21C [Compound 46, (4αR,5S)-1-(4-fluorophenyl)-N,4α-dimethyl-N-[3-(trifluoromethyl)benzyl]-1,4,4α,5 ,6,7-hexahydrocyclopenta[f]indazole-5-carboxamide] | 2.6 | 2410 | 12.7 | 15.3 | > 5 | 87.4 | 17.6 |  |  |  |
| CCN(Cc1ccccc1)C(=O)[C@H]1CCC2=Cc3c(cnn3-c3ccc(F)cc3)C[C@@]21C [Compound 52, (4αR,5S}-N-benzyl-N-ethyl-1-(4-fluorophenyl)-4α-methyl-1,4,4α,5,6,7-hexahydrocyclopenta[f]indazole-5-carboxamide] | 11.6 | 1710 | 21.7 | 33.2 | > 5 | 971 | 2.6 |  |  |  |
| (4αR,5S)-N,N-dibutyl-1-(4-fluorophenyl)- 4α-methyl-1,4,4α,5,6,7- hexahydrocyclopenta[f]indazole-5- carboxamide [Compound 9] |  | 360 | 15.9 |  |  | 497 |  | 38.5 | 54.4 | 1 |
| CC(O)CN(CC(C)O)C(=O)[C@H]1CCC2=Cc3c(cnn3-c3ccc(F)cc3)C[C@@]21C (stereo partly drawn) [Compound 10, (4αR,5S)-1-(4-fluorophenyl)-N,N-bis(2-hydroxypropyl)-4α-methyl-1,4,4α,5,6,7-hexahydrocyclopenta[f]indazole-5-carboxamide] | 40.8 | 326 | 19.0 | 59.8 | > 5 | 384 | 1.8 |  |  |  |
| C[C@]12Cc3cnn(-c4ccc(F)cc4)c3C=C1CC[C@@H]2C(=O)N(CCO)CC(=O)c1coc2ccccc12 [Compound 29, (4αR,5S)-N-[2-(1-benzofuran-3-yl)-2-oxoethyl]-1-(4-fluorophenyl)-N-(2-hydroxyethyl)-4α-methyl-1,4,4α,5,6,7-hexahydrocyclopenta[f]indazole-5-carboxamide] | 2.7 | 3290 | 29.8 | 32.5 | > 5 | 1840 | 39.1 |  |  |  |
| Cc1ccc(CN(CCO)C(=O)[C@H]2CCC3=Cc4c(cnn4-c4ccc(F)cc4)C[C@@]32C)cc1F [Compound 27, (4αR,5S)-N-(3-fluoro-4-methylbenzyl)-1-(4-fluorophenyl)-N-(2-hydroxyethyl)-4α-methyl-1,4,4α,5,6,7-hexahydrocyclopenta[f]indazole-5-carboxamide] | 10.2 | 2160 | 45.6 | 55.8 | > 5 | 1620 | 13.9 |  |  |  |
| C[C@]12Cc3cnn(-c4ccc(F)cc4)c3C=C1CC[C@@H]2C(=O)N(CCO)Cc1cccc(F)c1 [Compound 33, (4αR,5S)-N-(3-fluorobenzyl)-1-(4-fluorophenyl)-N-(2-hydroxyethyl)-4α-methyl-1,4,4α,5,6,7-hexahydrocyclopenta[f]indazole-5-carboxamide] | 12.2 | 901 | 44.1 | 56.3 | > 5 | 1520 | 7.7 |  |  |  |
| CCCCCN(CCO)C(=O)[C@H]1CCC2=Cc3c(cnn3-c3ccc(F)cc3)C[C@@]21C [Compound 38, (4αR,5S)-1-(4-fluorophenyl)-N-(2-hydroxyethyl)-4α-methyl-N-pentyl-1,4,4α,5,6,7-hexahydrocyclopenta[f]indazole-5-carboxamide] | 37.5 | 660 | 47.3 | 84.7 | > 5 | 739 | 14.6 |  |  |  |
| CC(C)CN(C[C@H](C)O)C(=O)[C@H]1CCC2=Cc3c(cnn3-c3ccc(F)cc3)C[C@@]21C [Compound 66, (4αR,5S)-1-(4-fluorophenyl)-N-[(2S)-2-hydroxypropyl]-N-isobutyl-4α-methyl-1,4,4α,5,6,7-hexahydrocyclopenta[f]indazole-5-carboxamide] | 67.6 | 613 | 10.5 | 78.1 | > 5 | 685 | 8.7 |  |  |  |
| CN(CC(O)C(F)(F)F)C(=O)[C@H]1CCC2=Cc3c(cnn3-c3ccccc3)C[C@@]21C (stereo partly drawn) [Compound 74, (4αR,5S)-N,4α-dimethy1-1-phenyl-N-(3,3,3-trifluoro-2-hydroxypropyl)-1,4,4α,5,6,7-hexahydrocyclopenta[f]indazole-5-carboxamide] |  | 276 | 35.1 | 73.9 | > 5 | 381 | 10.6 | 38.8 |  |  |
| C[C@]12Cc3cnn(-c4ccc(F)cc4)c3C=C1CC[C@@H]2C(=O)N1CCCC(CCc2ccccc2)C1 (stereo partly drawn) [Compound 20, (4αR,5S)-1-(4-fluorophenyl)-4α-methyl-5-{[3-(2-phenylethyl)piperidin-1-yl]carbonyl}-1,4,4α,5,6,7-hexahydrocyclopenta[f]indazole] | 3.6 | 1.3 | 7.4 | 11 | > 5 | 693 | 3.1 |  |  |  |
| C[C@]12Cc3cnn(-c4ccc(F)cc4)c3C=C1CC[C@@H]2C(=O)NC(Cc1ccccc1)c1ccccc1 (stereo partly drawn) [Compound 2, (4αR,5S)-N-(1,2-diphenylethyl)-1-(4-fluorophenyl)-4α-methyl-1,4,4α,5,6,7-hexahydrocyclopenta[f]indazole-5-carboxamide] | 3.1 | 1120 | 24.5 | 27.6 | > 5 | 3540 | 12.7 |  |  |  |
